Series [1] concerns the target T1, human β2 adrenergic receptor (Homo sapiens, UniProt P07550).
T1 construct: expressed in transfected cells; host or cells: CHO (Chinese Hamster Ovary) cells, CHOhβ2
Description: cAMP Flashplate assay in CHO cells recombinantly expressing the human β2 adrenergic receptor. The series is classed as cell-based. The settings on record: CHOhβ2 cells, 1 hour incubation, data as % Isoprenaline activity. The procedure: According to another alternative, the agonist potency for the β2 receptor of the compounds of the formula (1) may also be determined by the measure of the concentration of compound according to the present invention required to produce half maximal effect (EC50) for the β2 receptor.
10 mM/100% DMSO (dimethylsulfoxide) stock of compound is diluted to required top dose in 4% DMSO. This top dose is used to construct a 10-point semi-log dilution curve, all in 4% DMSO. Isoprenaline (Sigma, I-5627) was used as a standard in every experiment and for control wells on each plate. Data was expressed as % Isoprenaline response.
CHO (Chinese Hamster Ovary) cells recombinantly expressing the human β2 adrenergic receptor (from Kobilka et al., PNAS 84: 46-50, 1987 and Bouvier et al., Mol Pharmacol 33: 133-139 1988 CHOhβ2) were grown in Dulbeccos MEM/NUT MIX F12 (Gibco, 21331-020) supplemented with 10% foetal bovine serum (Sigma, F4135, Lot 90K8404 Exp 09/04), 2 mM glutamine (Sigma, G7513), 500 μg/ml geneticin (Sigma, G7034) and 10 μg/ml puromycin (Sigma, P8833). Cells were seeded to give about 90% confluency for testing.
25 μl/well each dose of compound was transferred into a cAMP-Flashplate® (NEN, SMP004B), with […] as basal controls and 100 nM Isoprenaline as max controls. This was diluted 1:2 by the addition of 25 μl/well PBS. Cells were trypsinised (0.25% Sigma, T4049), washed with PBS (Gibco, 14040-174) and resuspended in stimulation buffer (NEN, SMP004B) to give 1×10^6 cells/ml CHOhB2. Compounds were incubated with 50 μl/well cells for 1 hour. Cells were then lysed by the addition of 100 μl/well detection buffer (NEN, SMP004B) containing 0.18 μCi/ml ^125I-cAMP (NEN, NEX-130) and plates were incubated at room temperature for a further 2 hours. The amount of ^125I-cAMP bound to the Flashplate® was quantified using a Topcount NXT (Packard), normal counting efficiency for 1 minute. Dose-response data was expressed as % Isoprenaline activity and fitted using a four parameter sigmoid fit.

T1 sequence (P07550 whole entry): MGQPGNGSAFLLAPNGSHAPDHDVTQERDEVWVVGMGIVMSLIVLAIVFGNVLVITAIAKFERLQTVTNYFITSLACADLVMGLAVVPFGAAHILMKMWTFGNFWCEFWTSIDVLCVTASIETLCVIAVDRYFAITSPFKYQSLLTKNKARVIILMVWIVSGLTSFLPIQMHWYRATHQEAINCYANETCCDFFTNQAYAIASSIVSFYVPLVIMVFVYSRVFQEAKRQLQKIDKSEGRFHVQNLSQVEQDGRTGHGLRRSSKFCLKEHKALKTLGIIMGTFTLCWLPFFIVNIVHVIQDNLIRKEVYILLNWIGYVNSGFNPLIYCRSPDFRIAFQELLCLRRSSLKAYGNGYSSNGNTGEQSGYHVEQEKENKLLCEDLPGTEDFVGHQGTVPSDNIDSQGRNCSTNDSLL

As to `C[C@H](Cc1cccc(CC(=O)NC2CCCCCC2)c1)NC[C@H](O)c1ccc(O)c(CO)c1` [Example 1, N-cycloheptyl-2-{3-[(2R)-2-({(2R)-2-hydroxy-2-[4-hydroxy-3-(hydroxymethyl)phenyl]ethyl}amino)propyl]phenyl}acetamide], in series [1], the EC50 was 0.143 nM.

With `C[C@H](Cc1cccc(CC(=O)NCC23CC4CC(CC(C4)C2)C3)c1)NC[C@H](O)c1ccc(O)c(CO)c1` [Example 14, N-(1-adamantylmethyl)-2-{3-[(2R)-2-({(2R)-2-hydroxy-2-[4-hydroxy-3-(hydroxymethyl)phenyl]ethyl}amino)propyl]phenyl}acetamide], in series [1], the concentration for a half-maximal effect (EC50) amounted to 0.064 nM.

Consider `C[C@H](Cc1cccc(CC(=O)N(C)CCC2CCCCC2)c1)NC[C@H](O)c1ccc(O)c(CO)c1` [Example 16, N-(2-cyclohexylethyl)-2-{3-[(2R)-2-({(2R)-2-hydroxy-2-[4-hydroxy-3-(hydroxymethyl)phenyl]ethyl}amino)propyl]phenyl}-N-methylacetamide], for which, in series [1], the EC50 came out at 0.874 nM.

Regarding `CC(C)(Cc1cccc(CC(=O)N2CCc3ccccc3C2)c1)NC[C@H](O)c1ccc(O)c(CO)c1` [Example 23, 4{(1R)-2-[(2-{3-[2-(3,4-dihydroisoquinolin-2(1H)-yl)-2-oxoethyl]phenyl}-1,1-dimethylethyl)amino]-1-hydroxyethyl}-2-(hydroxymethyl)phenol], in series [1], the EC50 came to 0.08 nM.

In the case of `CC(C)(Cc1cccc(CC(=O)NCc2cc(C(F)(F)F)ccc2F)c1)NC[C@H](O)c1ccc(O)c(CO)c1` [Example 24, N-[2-fluoro-5-(trifluoromethyl)benzyl]-2-{3-[2-({(2R)-2-hydroxy-2-[4-hydroxy-3-(hydroxymethyl)phenyl]ethyl}amino)-2-methylpropyl]phenyl}acetamide], in series [1], the EC50 came out at 0.15 nM. `CC(C)(Cc1cccc(C(=O)NCCc2ccc(Cl)cc2)c1)NC[C@H](O)c1ccc(O)c(CO)c1` [Example 33, N-[2-(4-chlorophenyl)ethyl]-3-{2-[(2R)-2-hydroxy-2-(4-hydroxy-3-hydroxymethyl-phenyl)ethylamino]-2-methylpropyl}benzamide] registered a melting point of 139 to 140 °C. `O=C(Cc1cccc(CCNC[C@H](O)c2ccc(O)c(CO)c2)c1)NCCc1ccccc1` [Example 46, 2-{3-[2-({(2R)-2-hydroxy-2-[4-hydroxy-3-(hydroxymethyl)phenyl]ethyl}amino)ethyl]phenyl}-N-(2-phenylethyl)acetamide]: in series [1], the concentration for a half-maximal effect (EC50) came out at 0.838 nM.

Regarding `C[C@H](Cc1cccc(C(=O)NCc2ccc(S(N)(=O)=O)cc2)c1)NC[C@H](O)c1ccc(O)c(CO)c1` [Example 62, N-[4-(aminosulfonyl)benzyl]-3-[(2R)-2-({(2R)-2-hydroxy-2-[4-hydroxy-3-(hydroxymethyl)phenyl]ethyl}amino)propyl]benzamide], in series [1], the EC50 stood at 0.444 nM. Same read-out and setting: then `CC(C)(Cc1cccc(C(=O)NCCc2cccc(F)c2)c1)NC[C@H](O)c1ccc(O)c(CO)c1` [Example 63, N-[2-(3-Fluorophenyl)ethyl]-3-[2-({(2R)-2-hydroxy-2-[4-hydroxy-3-(hydroxymethyl)phenyl]ethyl}amino)-2-methylpropyl]benzamide], with 0.075 nM.

For the compound `CC(C)(Cc1cccc(C(=O)NCC2Cc3ccccc3C2)c1)NC[C@H](O)c1ccc(O)c(CO)c1` [Example 66], in series [1], the half-maximal effective concentration (EC50) was 1.16 nM.

As to `Cc1cccc(CCNC(=O)c2cccc(CC(C)(C)NC[C@H](O)c3ccc(O)c(CO)c3)c2)n1` [Example 88], the EC50 in series [1] is 0.434 nM. On the same count and under the same terms, under `CC(C)(Cc1cccc(C(=O)NCCc2ccccc2C(F)(F)F)c1)NC[C@H](O)c1ccc(O)c(CO)c1` [Example 102] stands 0.1 nM. On the same count and under the same terms, under `CC(C)(Cc1cccc(C(=O)NCCC23CC4CC(CC(C4)C2)C3)c1)NC[C@H](O)c1ccc(O)c(CO)c1` [Example 114] stands 0.134 nM.

What is called EC50 is the concentration giving half of the maximal effect. As usually defined, the melting point is the temperature of the solid-liquid transition.

Values taken from US7629358B2, “Compounds useful for the treatment of diseases” (Pfizer Inc, priority 2004, dated 2009).
